Test results from patent publication US20240327413A1, “NLRP3 MODULATORS” (Zomagen Biosciences Ltd, priority 2021, published 2024).
Read-outs that look alike come from different tables or passages of the source.

Test system: IL-1b
Assay: Human Monocyte IL-1b Assay (fresh human whole blood, LPS priming, ATP stimulation, ELISA)
Assay type: cell-based
Conditions: read-out: IL-1b (IC50)
Protocol: Serially diluted testing compounds were incubated with […] of fresh human whole blood for 0.5 hours. Cells were primed with 100 ng/mL lipopolysaccharide (LPS) for 3.5 hours at 37° C. followed by stimulation with 5 mM ATP for an additional 45 minutes. The concentration of IL-1b concentration in the supernatant was determined with commercially available ELISA kits. Negative controls are wells without stimulation, while positive controls are wells with stimulation but only DMSO without compounds added. After background subtraction, compound treatment wells were then normalized to the positive controls for IC50 calculations.

[1] = fresh human whole blood, 100 ng/mL LPS 3.5 hours, then 5 mM ATP 45 minutes, IL-1b in supernatant by ELISA

SMILES | IC50 [1] | IC50 (Homo sapiens)
Cc1cc(C)c(-c2nnc(N[C@@H]3CCCN(C)C3)c3ccccc23)c(O)c1 [Compound 1, 3,5-dimethyl-2-(4-(((R)-1-methylpiperidin-3-yl)amino)phthalazin-1-yl)phenol] | < 0.3 µM | 
Cc1ccc(-c2nnc(N[C@@H]3CCCN(C)C3)c3ccccc23)c(O)c1 [Compound 2, (R)-5-methyl-2-(4-((1-methylpiperidin-3-yl)amino)phthalazin-1-yl)phenol] | < 0.3 µM | 
CN1CCC[C@@H](Nc2nnc(-c3ccc4c(c3O)CCC4)c3ccccc23)C1 [Compound 4, (R)-5-(4-((1-methylpiperidin-3-yl)amino)phthalazin-1-yl)-2,3-dihydro-1H-inden-4-ol] | < 0.3 µM | 
Cc1cc(O)c(-c2nnc(N[C@@H]3CCCN(C)C3)c3ccccc23)cc1F [Compound 5, (R)-4-fluoro-5-methyl-2-(4-((1-methylpiperidin-3-yl)amino)phthalazin-1-yl)phenol] | < 0.3 µM | 
CCOC(=O)c1cc(C)ccc1-c1nnc(N[C@@H]2CCCN(C)C2)c2ccccc12 [Compound 6, ethyl (R)-5-methyl-2-(4-((1-methylpiperidin-3-yl)amino)phthalazin-1-yl)benzoate] | 3 to 10 µM | 
Cc1cc(C)c(-c2nnc(N[C@@H]3CCCN(C)C3)c3c2CCC3)c(O)c1 [Compound 7, 3,5-dimethyl-2-(4-(((R)-1-methylpiperidin-3-yl)amino)-6,7-dihydro-5H-cyclopenta[d]pyridazin-1-yl)phenol] | < 0.3 µM | 
Cc1ccc(-c2nnc(N[C@@H]3CCCN(C)C3)c3c2CCC3)c(O)c1 [Compound 8, (R)-5-methyl-2-(4-((1-methylpiperidin-3-yl)amino)-6,7-dihydro-5H-cyclopenta[d]pyridazin-1-yl)phenol] | < 0.3 µM | 
Cc1ccc(-c2nnc(N[C@@H]3CCCN(C)C3)c3c2CCC3)c(O)c1F [Compound 10, (R)-2-fluoro-3-methyl-6-(4-((1-methylpiperidin-3-yl)amino)-6,7-dihydro-5H-cyclopenta[d]pyridazin-1-yl)phenol] | < 0.3 µM | 
Cc1ccc(-c2nnc(N[C@@H]3CCCN(C)C3)c3c2CCCC3)c(O)c1 [Compound 11, (R)-5-methyl-2-(4-((1-methylpiperidin-3-yl)amino)-5,6,7,8-tetrahydrophthalazin-1-yl)phenol] | < 0.3 µM | 
Cc1ccc(-c2nnc(N(C)[C@@H]3CCCN(C)C3)c3ccccc23)c(O)c1 [Compound 12, (R)-5-methyl-2-(4-(methyl(1-methylpiperidin-3-yl)amino)phthalazin-1-yl)phenol] | 0.3 to 3 µM | 
Cc1cc(C)c(-c2nnc(N[C@@H]3CCCN(C)C3)n3cccc23)c(O)c1 [Compound 13, (R)-3,5-dimethyl-2-(4-((1-methylpiperidin-3-yl)amino)pyrrolo[1,2-d][1,2,4]triazin-1-yl)phenol] | < 0.3 µM | 
Cc1cc(O)c(-c2nnc(N[C@@H]3CCCN(C)C3)n3cccc23)c(F)c1 [Compound 14, (R)-3-fluoro-5-methyl-2-(4-((1-methylpiperidin-3-yl)amino)pyrrolo[1,2-d][1,2,4]triazin-1-yl)phenol] | < 0.3 µM | 
CN1CCC[C@@H](Nc2nnc(-c3ccc(C(F)(F)F)cc3O)c3ccsc23)C1 [Compound 19, (R)-2-(7-((1-methylpiperidin-3-yl)amino)thieno[2,3-d]pyridazin-4-yl)-5-(trifluoromethyl)phenol] | < 0.3 µM | 
CN1CCC[C@@H](Nc2nnc(-c3ccc(C(F)(F)F)cc3O)c3sccc23)C1 [Compound 20, (R)-2-(4-((1-methylpiperidin-3-yl)amino)thieno[2,3-d]pyridazin-7-yl)-5-(trifluoromethyl)phenol] | < 0.3 µM | 
Cc1ccc(-c2nnc(N[C@@H]3CCCN(C)C3)c3cscc23)c(O)c1 [Compound 21, (R)-5-methyl-2-(4-((1-methylpiperidin-3-yl)amino)thieno[3,4-d]pyridazin-1-yl)phenol] | < 0.3 µM | 
CN1CCC[C@@H](Nc2nnc(-c3ccc(C(F)(F)F)cc3O)c3cscc23)C1 [Compound 22, (R)-2-(4-((1-methylpiperidin-3-yl)amino)thieno[3,4-d]pyridazin-1-yl)-5-(trifluoromethyl)phenol] | < 0.3 µM | 
Cc1ccc(-c2nnc(OC3CCCN(C)C3)c3ccccc23)c(O)c1 (centres unmarked) [Compound 23, 5-methyl-2-(4-((1-methylpiperidin-3-yl)oxy)phthalazin-1-yl)phenol] |  | 0.3 to 3 µM
Cc1ccc(-c2nnc(N[C@@H]3CCCN(C)C3)n3cccc23)c(O)c1 [Compound 24, (R)-5-methyl-2-(4-((1-methylpiperidin-3-yl)amino)pyrrolo[1,2-d][1,2,4]triazin-1-yl)phenol] | < 0.3 µM | 
Cc1cc(O)c(-c2nnc(N[C@@H]3CCCN(C)C3)n3cccc23)cc1F [Compound 26, (R)-4-fluoro-5-methyl-2-(4-((1-methylpiperidin-3-yl)amino)pyrrolo[1,2-d][1,2,4]triazin-1-yl)phenol] | 0.3 to 3 µM | 
CN1CCC[C@@H](Nc2nnc(-c3ccc4c(c3O)CCC4)c3cccn23)C1 [Compound 27, (R)-5-(4-((1-methylpiperidin-3-yl)amino)pyrrolo[1,2-d][1,2,4]triazin-1-yl)-2,3-dihydro-1H-inden-4-ol] | 0.3 to 3 µM | 
